Laboratory results from ChEMBL document CHEMBL1201862, “PubChem BioAssay data set” (2004).
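96-well plates; 48 h exposure; 5 concentrations. Endpoints by linear interpolation between flanking doses. Not reached: highest tested concentration assigned. GI50 marks 50% less growth.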 The source made the active and inactive calls. Cut-off read from the data, not from the text of the source: active = GI50 up to about 1.1 µM and inactive = higher.

Key:
Assay in all cases: growth of human tumour cells (NCI), 48 h
[1] = tested on: 786-0
[2] = tested on: A498
[3] = tested on: A549
[4] = tested on: ACHN
[5] = tested on: BT-549
[6] = tested on: CAKI-1
[7] = tested on: CCRF-CEM
[8] = tested on: COLO 205
[9] = tested on: DU-145
[10] = tested on: EKVX
[11] = tested on: HCC 2998
[12] = tested on: HCT-116
[13] = tested on: HCT-15
[14] = tested on: HL-60
[15] = tested on: HOP-62
[16] = tested on: HOP-92
[17] = tested on: HT-29
[18] = tested on: IGROV-1
[19] = tested on: K562
[20] = tested on: KM12
[21] = tested on: LOX IMVI
[22] = tested on: M14
[23] = tested on: MCF7
[24] = tested on: MDA-MB-435
[25] = tested on: MDA-N
[26] = tested on: MOLT-4
[27] = tested on: Malme-3M
[28] = tested on: NCI-H23
[29] = tested on: NCI-H460
[30] = tested on: NCI-H522
[31] = tested on: NCI/ADR-RES
[32] = tested on: OVCAR-3
[33] = tested on: OVCAR-5
[34] = tested on: OVCAR-8
[35] = tested on: PC-3
[36] = tested on: RPMI-8226
[37] = tested on: RXF 393
[38] = tested on: SF-268
[39] = tested on: SF-539
[40] = tested on: SK-MEL-28
[41] = tested on: SK-MEL-2
[42] = tested on: SK-MEL-5
[43] = tested on: SN12C
[44] = tested on: SNB-19
[45] = tested on: SNB-75
[46] = tested on: SR
[47] = tested on: SW-620
[48] = tested on: T47D
[49] = tested on: UACC-257
[50] = tested on: UACC-62
[51] = tested on: UO-31
[52] = tested on: NCI-H226
[53] = tested on: OVCAR-4
[54] = tested on: Hs-578T
[55] = tested on: MDA-MB-231
[56] = tested on: SF-295
[57] = tested on: SK-OV-3
[58] = tested on: U-251

SMILES: CCCSc1ccc2[nH]c(N3C(=O)/C(=C/c4ccco4)N=C3c3ccccc3)cc2c1
- GI50 [1]: 23.7 µM (inactive)
- GI50 [2]: 15.4 µM (inactive)
- GI50 [3]: 25.7 µM (inactive)
- GI50 [4]: 38.8 µM (inactive)
- GI50 [5]: 32.7 µM (inactive)
- GI50 [6]: 34.7 µM (inactive)
- GI50 [7]: 19.3 µM (inactive)
- GI50 [8]: 10.4 µM (inactive)
- GI50 [9]: > 50 µM (inactive)
- GI50 [10]: 16.9 µM (inactive)
- GI50 [11]: 18.3 µM (inactive)
- GI50 [12]: 21.8 µM (inactive)
- GI50 [13]: 19.8 µM
- GI50 [14]: 11.9 µM (inactive)
- GI50 [15]: 40.7 µM (inactive)
- GI50 [16]: > 50 µM (inactive)
- GI50 [17]: 21.3 µM (inactive)
- GI50 [18]: 40.1 µM (inactive)
- GI50 [19]: 15.6 µM (inactive)
- GI50 [20]: 17.7 µM (inactive)
- GI50 [21]: 27.8 µM (inactive)
- GI50 [22]: 21.6 µM (inactive)
- GI50 [23]: 15.8 µM (inactive)
- GI50 [24]: 8.71 µM (inactive)
- GI50 [25]: 6 µM (inactive)
- GI50 [26]: 17.1 µM (inactive)
- GI50 [27]: > 50 µM (inactive)
- GI50 [28]: 34.8 µM (inactive)
- GI50 [29]: 18.3 µM (inactive)
- GI50 [30]: 13.2 µM (inactive)
- GI50 [31]: 19.6 µM (inactive)
- GI50 [32]: 21.6 µM (inactive)
- GI50 [33]: > 50 µM (inactive)
- GI50 [34]: > 50 µM (inactive)
- GI50 [35]: 21.3 µM (inactive)
- GI50 [36]: 16.7 µM (inactive)
- GI50 [37]: 22.9 µM (inactive)
- GI50 [38]: 33 µM (inactive)
- GI50 [39]: 9.42 µM (inactive)
- GI50 [40]: 33.7 µM (inactive)
- GI50 [41]: 10.3 µM (inactive)
- GI50 [42]: 9.89 µM (inactive)
- GI50 [43]: 35 µM (inactive)
- GI50 [44]: > 50 µM (inactive)
- GI50 [45]: 44 µM (inactive)
- GI50 [46]: 7.26 µM (inactive)
- GI50 [47]: 20.8 µM (inactive)
- GI50 [48]: 27.6 µM (inactive)
- GI50 [49]: 18.2 µM (inactive)
- GI50 [50]: 23.3 µM (inactive)
- GI50 [51]: 38.3 µM (inactive)

SMILES: COc1cc(/C=C2\N=C(c3ccccc3)N(c3cc4cc(Sc5ccccc5)ccc4[nH]3)C2=O)ccc1O
- GI50 [1]: 9.59 µM (inactive)
- GI50 [2]: 0.102 µM (active)
- GI50 [3]: > 50 µM (inactive)
- GI50 [4]: 7.46 µM (inactive)
- GI50 [5]: 13.6 µM (inactive)
- GI50 [6]: 11.1 µM (inactive)
- GI50 [7]: 2.69 µM (inactive)
- GI50 [8]: 2.35 µM (inactive)
- GI50 [9]: 11.7 µM (inactive)
- GI50 [10]: 22.1 µM (inactive)
- GI50 [11]: 5.82 µM (inactive)
- GI50 [12]: 2.11 µM (inactive)
- GI50 [13]: 2.86 µM
- GI50 [14]: 1.39 µM (inactive)
- GI50 [16]: 6.12 µM (inactive)
- GI50 [17]: 3.51 µM (inactive)
- GI50 [18]: 3.28 µM (inactive)
- GI50 [19]: 1.97 µM (inactive)
- GI50 [20]: > 50 µM (inactive)
- GI50 [21]: 29.9 µM (inactive)
- GI50 [22]: 3.65 µM (inactive)
- GI50 [23]: 0.255 µM (active)
- GI50 [24]: 1.46 µM (inactive)
- GI50 [25]: 1.07 µM (active)
- GI50 [26]: 2.49 µM (inactive)
- GI50 [27]: 1.43 µM (inactive)
- GI50 [52]: > 50 µM (inactive)
- GI50 [28]: 18.5 µM (inactive)
- GI50 [29]: 2.36 µM (inactive)
- GI50 [30]: 1.86 µM (inactive)
- GI50 [31]: 3.13 µM (inactive)
- GI50 [53]: 35 µM (inactive)
- GI50 [33]: > 50 µM (inactive)
- GI50 [34]: 12.3 µM (inactive)
- GI50 [37]: 5.02 µM (inactive)
- GI50 [39]: 5.14 µM (inactive)
- GI50 [40]: > 50 µM (inactive)
- GI50 [42]: 2.54 µM (inactive)
- GI50 [43]: 7.87 µM (inactive)
- GI50 [44]: > 50 µM (inactive)
- GI50 [45]: 21.8 µM (inactive)
- GI50 [46]: 2.12 µM (inactive)
- GI50 [47]: 3.58 µM (inactive)
- GI50 [48]: 5.52 µM (inactive)
- GI50 [49]: 14.8 µM (inactive)
- GI50 [50]: 0.188 µM (active)
- GI50 [51]: 15.6 µM (inactive)

SMILES: CC(C)NC(=O)OCc1c(COC(=O)NC(C)C)c(-c2cc[n+](COC(=O)CC(C)(C)C)cc2)n2c1CCC2
- GI50 [1]: > 100 µM (inactive)
- GI50 [2]: > 100 µM (inactive)
- GI50 [3]: > 100 µM (inactive)
- GI50 [5]: > 100 µM (inactive)
- GI50 [6]: > 100 µM (inactive)
- GI50 [7]: > 100 µM (inactive)
- GI50 [8]: > 100 µM (inactive)
- GI50 [10]: > 100 µM (inactive)
- GI50 [11]: > 100 µM (inactive)
- GI50 [13]: > 100 µM
- GI50 [14]: > 100 µM (inactive)
- GI50 [15]: > 100 µM (inactive)
- GI50 [16]: > 100 µM (inactive)
- GI50 [54]: > 100 µM (inactive)
- GI50 [18]: > 100 µM (inactive)
- GI50 [19]: > 100 µM (inactive)
- GI50 [22]: > 100 µM (inactive)
- GI50 [23]: > 100 µM (inactive)
- GI50 [55]: > 100 µM (inactive)
- GI50 [25]: > 100 µM (inactive)
- GI50 [26]: > 100 µM (inactive)
- GI50 [52]: > 100 µM (inactive)
- GI50 [28]: > 100 µM (inactive)
- GI50 [30]: > 100 µM (inactive)
- GI50 [31]: > 100 µM (inactive)
- GI50 [32]: > 100 µM (inactive)
- GI50 [53]: > 100 µM (inactive)
- GI50 [34]: > 100 µM (inactive)
- GI50 [35]: > 100 µM (inactive)
- GI50 [36]: > 100 µM (inactive)
- GI50 [37]: > 100 µM (inactive)
- GI50 [56]: > 100 µM (inactive)
- GI50 [39]: > 100 µM (inactive)
- GI50 [42]: > 100 µM (inactive)
- GI50 [57]: > 100 µM (inactive)
- GI50 [43]: > 100 µM (inactive)
- GI50 [44]: > 100 µM (inactive)
- GI50 [46]: 42.4 µM (inactive)
- GI50 [47]: > 100 µM (inactive)
- GI50 [58]: > 100 µM (inactive)
- GI50 [49]: > 100 µM (inactive)
- GI50 [51]: > 100 µM (inactive)
